{"source": "patent US9205135B2", "about": "“Podocyte pH modulation and uses thereof” (University of Miami, priority 2009, dated 2015)", "key": {"[1]": {"test_system": "podocytes", "test": "Glutamine uptake rate in cultured podocytes", "assay_type": "cell-based, mouse", "conditions": "injury stimulus", "excerpt": "A podocyte metabolic model was constructed based on available databases as well as mRNA and protein expression data extracted from podocytes. The following podocyte culture models were employed: wildtype (control), LPS and PAN stimulated podocytes (inducible injury models) as well as podocytes with genetic deletion of the alpha3 gene (genetic disease model). All injury cultures increase the uptake of glutamine as well as gluconeogenic aminoacids. In addition, there is increasing ammonia production in diseased podocytes. These changes were predicted by the podocyte metabolic model and confirmed by measuring directly amino acids and ammonia (FIGS. 1A-1D).\nMetabolic Flux Analysis emphasizes glutamine utilization pathways for podocyte function: We utilized cultured normal podocytes (control) (15) and three in vitro models for podocyte damage: i) podocytes with α3 integrin deletion (genetic model) (16); ii) podocytes treated with lipopolysaccharides (LPS, immunological model) (17); and iii) podocytes treated with puromycin aminonucleoside (PAN, toxic model) (18). […] Using the podocyte MFA network, we were able to extract podocyte aminoacid and glucose utilization (FIG. 10b-d) that was also independently measured in direct validation studies (data not shown). All analyzed modeling and experimentation data supported the notion that the aminoacid metabolism of podocytes is changed in disease. […]"}, "[2]": {"test_system": "cathepsin L", "test": "Cathepsin L activity in cultured podocytes, CV-(FR)2 substrate", "assay_type": "cell-based, mouse", "conditions": "effect of the injury stimulus itself", "method": "Subcellular sites of cathepsin L and cathepsin B activity in glomerular extracts were visualized by a fluorogenic substrate, CV-(FR)2, which emits light upon cleavage by cathepsin L or cathepsin B (Biomol).\nMeasurement of cathepsin L activity: Cathepsin L activities in cultured podocytes and in glomeruli was measured using CV-CatL detection kit (Biomol, Plymouth Meeting, Pa.) as described in the manufacturer's instructions. The fluorophore cresyl violet [CV-(FR)2] substrate becomes florescent after Cat L cleavage of the attached Phe-Arg groups. This substrate easily penetrates the cell membrane and the membranes of the internal cellular organelles, enabling the detection of cathepsin activity within living podocytes."}, "[3]": {"test_system": "SNAT3", "test": "RT-PCR expression of SNAT glutamine transporters in mouse glomeruli", "assay_type": "in vivo", "conditions": "glomeruli of mice stimulated with LPS", "excerpt": "Podocytes induce expression of SNAT glutamine transporters during injury: Having identified increased glutamine uptake and utilization as a signature for diseased podocytes that varies from other non-differentiated eukaryotic cells (FIG. 7), we studied the expression of the expression of system A (SNAT1, 2, 4) and system N(SNAT3, 5, 6) family members of sodium-coupled neutral amino acid transporters in cultured podocytes (FIG. 2a). Glutamine is known to be a favored substrate throughout the family, except for SNAT4 (21). We also studied these transporters in isolated mouse glomeruli (FIG. 2a). All SNATs were expressed besides SNAT5, 3 and 4 were only found at low levels. […] SNAT3, formerly known as SN1 (Slc38a3), is known as an antiporter that function in the presence of Na+ and takes up glutamine for the exchange of H+. It is highly expressed on the mRNA and protein level in the kidney during metabolic acidosis and involved in the regulation of acid-base homeostasis (22-24).\n(§1) RT-PCR: We isolated total RNA from murine cultured podocytes and mouse glomeruli using the Trizol reagent (Invitrogen) according to the manufacturer's instructions. cDNA synthesis was performed with SuperScript II Reverse Transcriptase (Invitrogen) using Oligo(dT)12-18 oligonucleotide primers according to the manufacturer's instructions. All samples were run in duplicates."}, "[4]": {"test_system": "NIH 3T3", "test": "Glutamine uptake rate in NIH 3T3 cells", "assay_type": "cell-based", "method": "(§2) All together, these experiments discovered a uniform metabolic response for podocytes that are injured.\n(§3) Cells, antibodies, and standard techniques: Mouse podocyte cell lines (15) and HEK 293 cells (6) were grown as described previously. NIH 3T3 cells were cultured in Dulbecco's modified Eagle's minimal essential medium (Invitrogen, Carlsbad, Calif.) supplemented with 10% fetal calf serum (Invitrogen) and incubated in a humidified atmosphere of 95% air and 5% CO2 at 37° C. Antibody used for immunostaining are Alexa Fluor 594 phalloidin (Molecular Probes, Eugene, Oreg.). Subcellular fractionation was performed as described previously (6)."}, "[5]": {"test_system": "SNAT3", "test": "RT-PCR expression of SNAT glutamine transporters in cultured podocytes", "assay_type": "cell-based, mouse", "method": "In brief, total RNA from cultured mouse podocytes was isolated with RNA isolation kit (Qiagen, Germantown, Md.) and the amount of RNA was measured by spectrophotometry. Purified RNA was reverse transcribed and PCR performed using PCR Mastercycler (Eppendorf, Westbury, N.Y.).\nas §1"}, "[6]": {"test_system": "podocytes", "test": "Intracellular pH of podocytes by phosphorus NMR", "assay_type": "cell-based, mouse", "conditions": "after 24 hours of LPS exposure; 7.0 under normal conditions", "method": "Another example is using phosphorus NMR spectra for untreated and LPS-treated podocytes. Briefly, podocytes are cultured and treated with LPS. 8×10^7 to 1×10^8 cells are harvested and cultured in phosphate-free medium prior to assay. Phosphorous NMR spectra are acquired and analyzed using an iNMR software package. Intracellular pH (pHi) is calculated from the chemical shift difference (d) between the intracellular inorganic phosphate peak (Pi) and the primary phosphate of nucleoside phosphates (Pa) using equation 1.\nMeasurement of intracellular pH by NMR: Eighty to hundred million podocyte cells were harvested and resuspended in 2-2.5 mL of phosphate-free RPMI medium (MP Biomedicals, Solon, Ohio) with 2.0 mM glutamine (Invitrogen) prior to assay. Phosphorous NMR spectra were acquired on a 14 Tesla Bruker Avance NMR spectrometer (Bruker BioSpin, Billerica, Mass.) with a 10 mm broadband observe (BBO) NMR probe. Cell suspensions were placed in 10 mm (OD) glass NMR tubes (Wilmad LabGlass, Buena, N.J.). Samples were maintained at a temperature of 37° C. […] Spectra were analyzed using the iNMR software package (Mestrelab Research, Spain). Intracellular pH (pHi) was calculated from the chemical shift difference (d) between the intracellular inorganic phosphate peak (Pi) and the primary phosphate of nucleoside phosphates (Pa) using Eq. 1: […]"}, "[7]": {"test_system": "HEK293", "test": "Glutamine uptake rate in HEK293 cells", "assay_type": "cell-based", "method": "as §2, §3"}}, "data": [{"substance": "lipopolysaccharides [LPS]", "values": [{"measurement": "glutamine uptake rate", "setting": "[1]", "value": "stimulated"}, {"measurement": "cathepsin L activity in podocytes", "setting": "[2]", "value": "stimulate"}, {"measurement": "SNAT3 mRNA expression", "setting": "[3]", "value": "increased markedly"}, {"measurement": "glutamine uptake rate", "setting": "[4]", "value": "did not respond"}, {"measurement": "SNAT3 mRNA expression", "setting": "[5]", "value": "prominent induction"}, {"measurement": "podocyte cytosolic pH (NMR)", "setting": "[6]", "value": 6.9}, {"measurement": "glutamine uptake rate", "setting": "[7]", "value": "did not respond"}]}]}
